Where a SMILES comes first, the peptide text is derived from it.
What was measured:
HOG cells [1] = test: Targeted LC-MS/MS of NAA and NAAG in HOG cells incubated with NAA or NAAG media; assay type: cell-based, human
Method: Targeted mass LC-MS/MS. Simultaneous quantification of NAA and NAAG in cell culture media, cell lysates, and tissues was done by liquid chromatography-electrospray ionization-tandem mass spectrometry (LC-ESI-MS/MS).
Sample preparation. Media above the cells and cell lysates: To 20 μL of sample 40 μL of ice-cold methanol was added, mixture vigorously agitated (FastPrep, Qbiogene, Carlsbad, Calif. 20 s, speed 6), left at −20° C. for 15 min, agitated again (same cond.), centrifuged at 16,000 g for 5 min, and 50 μL of supernatant dried by vacuum centrifuge (50° C., 1 hr, SpeedVac, Thermo Scientific, West Palm Beach, Fla.). The dry residue was dissolved by 50 μL of mobile phase A (see below) and 10 μL injected into LC-MS/MS system. Tissue samples: To […] sample of wet tissue, 300 μL of deionized water and one 4 mm ceramic bead was added in 2-mL polypropylene tube and vigorously agitated (FastPrep, 20 s, speed 4, 2 cycles). A 50 μL aliquot of the homogenate was pipetted out for total protein measurement (for tissue mass normalization purpose) and 500 μL methanol added to the original vial which was again agitated (FastPrep, same conditions), left at −20° C. for 15 min, centrifuged at 16,000 g for 5 min, and 650 μL of supernatant dried by vacuum centrifuge (SpeedVac, 50° C., 1.5 hr). The dry residue was dissolved by 50 μL of mobile phase A (see below) and 10 μL injected into LC-MS/MS system.
LC-MS/MS analysis. Equipment: Agilent 1200 series HPLC (Santa Clara, Calif.) and Sciex/Applied Biosystems API 3200 QTrap (Carlsbad, Calif.). Mobile phase A: water, 3% methanol; mobile phase B: acetonitrile/methanol, 1/1. Analytical column: Kinetex C18, 150×4.6 mm, 2.6 μm, and SafeGuard C18 4×3 mm guard-column from Phenomenex (Torrance, Calif.). Column temperature: 45° C. Elution gradient at 1 mL/min flow rate: 0-1 min 0% B, 1-2 min 0-80% B, 2-3.5 min 80% B, 3.5-4 min 80-0% B, 4-10 min 0% B. Injection volume: 10 μL. The Q1/Q3 (m/z) transitions monitored in positive electrospray ionization mode: 176/158 (NAA, quantification), 176/134 (NAA, confirmation), 305/148 (NAAG, quantification), 305/130 (NAAG, confirmation).
Calibration. A set of calibrator samples in corresponding matrix was prepared for calibration by adding appropriate amounts of pure NAA and NAAG at the following concentration levels: 0, 0.01, 0.05, 0.25, 1.25, and 6.25 μg/mL. These samples were analyzed alongside the experimental samples and accuracy acceptance criteria was 85% for each but the lowest level (0.01 μg/mL, 80%). The limit of quantification (at 80% accuracy criterion) was determined to be 10 ng/ml for both NAA and NAAG. Samples in which NAA or NAAG was not detected were assigned to have a value of 0 NAA or NAAG (FIG. 5A,B). Statistically significant differences that we reported (FIG. 5A,B) were still significant when 10 ng/ml was assigned for samples in which NAA or NAAG was not detected. Quadratic least squares regression curve fit was employed to account for slight but predictable nonlinearity (ESI of highly polar analytes) with 1/x weighing factor. The addition of methanol to the sample matrix is shared with a recently reported NAAG analysis method (32). Otherwise this procedure is, to the best of our knowledge, novel.
Univariate statistics. Welch's t-test was used to determine whether mean levels of a biochemical in one experimental group were different from mean levels in another group. […]

HOG cells [2] = test: Metabolomic profiling (LC-MS, GC-MS) of HOG cell lysates after 2HG treatment or IDH1 shRNA expression; assay type: cell-based, human; conditions: for number of biochemicals with altered levels: 72 hours, HOG cells vs vector, p<0.05
Excerpt: Cell lines. HOG cells were derived from a human WHO grade III anaplastic oligodendroglioma (28) and previously found not to contain exon 4 IDH1 or exon 4 IDH2 mutations (8). The HOG cell line was kindly donated by Dr. A. T. Campagnoni at UCLA. To express IDH1 and IDH2 transgenes in cells, IDH1 and IDH2 cDNAs, or cDNAs mutagenized to IDH1-R132H or IDH2-R172K, were cloned into pLenti6.2/V5 (Invitrogen, Carlsbad, Calif.). Viruses were created using these constructs in 293FT cells and these were used to transduce cells derived from the same parental pool of HOG cells for 24 h. Cells derived from the same clone were reasoned to have homogenous IDH transgene expression levels and metabolic profiles compared to pools of cells or transiently transfected cells, facilitating the identification of metabolites that have altered levels in different clones. Virus was replaced by fresh media for 48 hours and then stable clones were selected from single-cell dilutions in 5 μg/ml blasticidin for 3 weeks. Stable HOG cell lines containing IDH1 shRNA or control were constructed by transfecting HOG cells with pSuperRetro vector (OligoEngine, Seattle, Wash.) containing IDH1-specific hairpin or a scrambled sequence (5′-cat aac gag cgg aag aac g-3′). The IDH1-specific hairpin was created using the primers 5′-gat ccc cGG GAA GTT CTG GTG TCA Tat tca aga gaT ATG ACA CCA GAA CTT CCC ttt ttg gaa a-3′ and 5′-agc ttt tcc aaa aaG GGA AGT TCT GGT GTC ATA tct ctt gaa TAT GAC ACC AGA ACT TCC Cgg g-3′, with capital letters representing bases homologous to IDH1 sequence. Clones were selected with 500 μg/ml G418 for 3 weeks and expanded after single cell dilution. Percent knockdown was determined by ImageJ (v1.43, available at http://rsbweb.nih.gov/ij/, developed by Wayne Rasband, National Institutes of Health, Bethesda, Md.) analysis of the intensity of immunoblot anti-IDH1 bands, normalized to the intensity of anti-GAPDH internal control bands (FIG. S4A). The same clone of vector, IDH1-WT, and IDH1-R132H HOG cells were used in all experiments.
2HG synthesis. 2HG was synthesized by treatment of D-glutamate (Sigma-Aldrich, St. Louis, Mo.) with nitrous acid to form a lactone, which was then hydrolyzed with NaOH solution to form 2-D-hydroxyl glutarate. Purity was 93%. Powder was resuspended in PBS and filtered through a 0.22 μm filter using sterile technique for treatment of cells.
Metabolomic analysis. Cell line treatment: Cells were grown under respective experimental conditions in IMDM media (Gibco, Invitrogen, Carlsbad, Calif.) supplemented with 10% FBS. For the experiment in FIG. 2, cells were grown in a media mix that also contained either 10% PBS or 10% of a 300 mM or 75 mM 2HG solution in PBS for a final 30 mM or 7.5 mM 2HG. Cells were seeded into flasks three days before harvesting. To harvest cells, media was removed, monolayers were washed with PBS, and 0.05% trypsin/EDTA was added. Cells were incubated for 20 min at 37° C. or until cells detached. Two volumes of media were added to the Trypsin/cell mix and suspended by gentle pipetting and triteration. Cells were counted, and 10^7 cells per sample were spun down at 1000 rpm×3 min in a polystyrene tube. Cells were washed twice with PBS and then snap-frozen on dry ice and stored at −80° C. until analysis.
Metabolite analysis: Metabolomic profiling analysis of all samples was carried out in collaboration with Metabolon (Durham, N.C.) as described previously (29-31), as follows:
Sample Preparation: The sample preparation process was carried out using the automated MicroLabSTAR® system (Hamilton Company, Reno, Nev.). Recovery standards were added prior to the first step in the extraction process for QC purposes. Sample preparation was conducted using a proprietary series of organic and aqueous extractions to remove the protein fraction while allowing maximum recovery of small molecules. The resulting extract was divided into two fractions; one for analysis by LC and one for analysis by GC. […]

[3] = system: complex V (ATP synthase) of the mitochondrial electron transport chain; conditions: chick neurons; reference 27; cited from earlier work
[4] = 30 mM 2HG-treated HOG cells vs vector, p<0.001

CC(=O)N[C@@H](CC(=O)O)C(=O)O [NAA, N-acetyl-aspartate]
level of NAA in IDH1-R132H expressing cells (HOG cells [1]; HOG IDH1-R132H cells, 100 μM NAA media, 48 hours): increased the level of NAA in IDH1-R132H expressing cells to the normal level of NAA in the vector control
intracellular NAA levels compared to controls (HOG cells [1]; HOG cells in media containing 100 μM NAA, 48 hours): higher
NAAG in HOG cells expressing IDH1-R132H (HOG cells [1]; after NAA treatment (100 μM NAA media, 48 hours)): did not increase

CC(=O)N[C@@H](CC(=O)O)C(=O)N[C@@H](CCC(=O)O)C(=O)O [NAAG, N-acetyl-aspartyl-glutamate] (Ac-Asp-Glu-OH)
NAA levels in NAAG-treated cells (HOG cells [1]; 10 μM NAAG, all groups (vector, IDH1-WT, IDH1-R132H)): modestly increased
intracellular NAAG levels compared to the no treatment group (HOG cells [1]; HOG cells treated with 10 μM NAAG, 48 hours): increased

O=C(O)CC[C@@H](O)C(=O)O [2HG, 2-D-hydroxyl glutarate]
number of biochemicals with altered levels (HOG cells [2]; 7.5 mM 2HG): 117
2HG elevation (intracellular) (HOG cells [2]; 30 mM 2HG group, HOG lysate vs vector, p<0.001): 54 fold
number of biochemicals with altered levels (HOG cells [2]; 30 mM 2HG): 130
reduced and oxidized glutathione (HOG cells [2]; 30 mM 2HG-treated HOG cells vs vector): not significantly affected
α-ketoglutarate higher (HOG cells [2]; 30 mM 2HG-treated HOG cells vs vector, non-significant, p=0.10): 1.3 fold
N-acetyl-aspartate (NAA) lower (HOG cells [2]; 30 mM 2HG-treated HOG cells vs vector, not significantly changed, p=0.38): 1.1 fold
GPC higher (HOG cells [2]; [4]): 3.0 fold
NAAG lower (HOG cells [2]; [4]): 1.8 fold
choline phosphate lower (HOG cells [2]; [4]): 100 fold
glutamate increased (HOG cells [2]; 30 mM 2HG-treated HOG cells vs vector, p=0.002): 1.4 fold
effect on complex V (ATP synthase) [3]: impair

— patent US20120202883A1, “EFFECTS OF IDH1 AND IDH2 MUTATIONS ON THE CELLULAR METABOLOME” (DUKE UNIVERSITY, priority 2011, published 2012)
